This is an account of results in patent US12398255B2, “Biocompatible crosslinkers for controlled degradation of polymer hydrogels” (Saint Louis University, priority 2020, dated 2025).

This data set is described as follows: Hydrogel degradation measured by swelling. Particulars: pH 7.4. The class given is physicochemical. Here is the method:
Additionally, degradation was followed by measuring QM as a function of time. MS was measured at specific time points until gels lacked physical integrity. QM was calculated for each time point and normalized to the QM of the non-swollen network at time zero (MG/MD). Initial mesh size (ξ) and crosslink density (vc) were calculated via the Flory-[…] theory.

Turning to PEG-dithiolpropionate [PEG-DD2], the “Degradation Time” value stood at 8.0 ± 0.5 days.
